According to ChEMBL document CHEMBL1139950, “Derivatives of oxoisoaporphine alkaloids: a novel class of selective acetylcholinesterase inhibitors” (Bioorg Med Chem Lett, 2007):

Assays:
[1] = target: Butyrylcholinesterase (Equus caballus, UniProt Q9N1N9); experiment: Inhibition of equine serum BuChE
[2] = target: Acetylcholinesterase (Electrophorus electricus, UniProt O42275); experiment: Inhibition of electric eel AChE
[3] = Selectivity for electric eel AChE over equine serum BuChE

Chain of Acetylcholinesterase (O42275 whole entry): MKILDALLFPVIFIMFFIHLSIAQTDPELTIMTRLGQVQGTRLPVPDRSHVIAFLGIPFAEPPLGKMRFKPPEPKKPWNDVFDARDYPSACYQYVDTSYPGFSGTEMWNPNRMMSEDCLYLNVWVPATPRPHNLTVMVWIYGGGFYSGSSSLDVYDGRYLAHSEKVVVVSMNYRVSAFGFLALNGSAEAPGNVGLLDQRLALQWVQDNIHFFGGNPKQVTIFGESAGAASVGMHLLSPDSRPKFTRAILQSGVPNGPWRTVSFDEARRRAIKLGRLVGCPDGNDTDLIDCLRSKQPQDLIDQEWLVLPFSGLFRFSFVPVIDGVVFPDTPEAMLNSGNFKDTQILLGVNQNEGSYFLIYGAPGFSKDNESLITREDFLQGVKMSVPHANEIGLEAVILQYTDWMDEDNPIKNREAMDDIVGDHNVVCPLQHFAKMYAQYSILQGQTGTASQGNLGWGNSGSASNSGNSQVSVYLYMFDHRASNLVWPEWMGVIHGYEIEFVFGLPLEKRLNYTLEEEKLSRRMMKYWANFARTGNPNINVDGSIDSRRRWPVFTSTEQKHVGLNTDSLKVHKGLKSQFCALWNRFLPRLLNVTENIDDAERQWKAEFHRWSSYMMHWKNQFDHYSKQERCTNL
Chain of Butyrylcholinesterase (Q9N1N9 whole entry): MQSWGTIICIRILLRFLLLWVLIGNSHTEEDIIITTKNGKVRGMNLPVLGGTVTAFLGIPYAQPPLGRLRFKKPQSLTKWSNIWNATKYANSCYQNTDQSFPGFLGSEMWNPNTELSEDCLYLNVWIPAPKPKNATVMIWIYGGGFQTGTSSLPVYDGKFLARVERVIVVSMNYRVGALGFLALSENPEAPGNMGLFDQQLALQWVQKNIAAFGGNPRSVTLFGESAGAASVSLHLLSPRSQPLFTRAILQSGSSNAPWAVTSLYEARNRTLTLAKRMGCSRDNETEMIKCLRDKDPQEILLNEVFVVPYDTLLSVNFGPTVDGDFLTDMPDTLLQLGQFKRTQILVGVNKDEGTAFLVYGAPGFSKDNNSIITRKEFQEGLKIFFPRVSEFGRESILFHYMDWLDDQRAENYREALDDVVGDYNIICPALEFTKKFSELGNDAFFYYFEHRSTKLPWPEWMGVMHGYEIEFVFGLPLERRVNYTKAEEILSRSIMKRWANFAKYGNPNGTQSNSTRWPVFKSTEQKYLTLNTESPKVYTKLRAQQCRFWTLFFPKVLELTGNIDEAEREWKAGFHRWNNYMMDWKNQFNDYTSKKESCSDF

SMILES | IC50 [1] [µM] | IC50 [2] [nM] | Ratio IC50 [3]
O=C(CCNCCO)Nc1ccc2c(c1)C(=O)c1cccc3ccnc-2c13 | 5.34 | 55.1 | 97
CCN(CC)CCC(=O)Nc1ccc2c(c1)C(=O)c1cccc3ccnc-2c13 | 6.06 | 11.6 | 523
C[N+](C)(C)CCC(=O)Nc1ccc2c(c1)C(=O)c1cccc3ccnc-2c13 | 2.82 | 4.81 | 590
Nc1ccc2c(c1)C(=O)c1cccc3ccnc-2c13 | 100 | 26900 | 
C[N+]1(CC(=O)Nc2ccc3c(c2)C(=O)c2cccc4ccnc-3c24)CCCC1 | 1.69 | 1.08 | 1560
CC[N+](C)(CC)CCCC(=O)Nc1ccc2c(c1)C(=O)c1cccc3ccnc-2c13 | 5.19 | 2.62 | 1980
CN(C)CCC(=O)Nc1ccc2c(c1)C(=O)c1cccc3ccnc-2c13 | 1.95 | 33.9 | 58
O=C(CCCN1CCCC1)Nc1ccc2c(c1)C(=O)c1cccc3ccnc-2c13 | 3.61 | 12.1 | 300
CN(C)CCCC(=O)Nc1ccc2c(c1)C(=O)c1cccc3ccnc-2c13 | 4.4 | 30.5 | 144
C[N+](C)(C)CC(=O)Nc1ccc2c(c1)C(=O)c1cccc3ccnc-2c13 | 1.31 | 14.9 | 88
C[N+]1(CCC(=O)Nc2ccc3c(c2)C(=O)c2cccc4ccnc-3c24)CCCC1 | 1.96 | 1.06 | 1850
CN(C)CCNCCC(=O)Nc1ccc2c(c1)C(=O)c1cccc3ccnc-2c13 | 5.37 | 120 | 45
O=C(CCN1CCCC1)Nc1ccc2c(c1)C(=O)c1cccc3ccnc-2c13 | 2.41 | 2.47 | 980
CN(C)CC(=O)Nc1ccc2c(c1)C(=O)c1cccc3ccnc-2c13 | 4.37 | 96.5 | 45
C[N+](C)(C)CCCC(=O)Nc1ccc2c(c1)C(=O)c1cccc3ccnc-2c13 | 2.37 | 4.79 | 490
C[N+]1(CCCC(=O)Nc2ccc3c(c2)C(=O)c2cccc4ccnc-3c24)CCCC1 | 3.23 | 2.51 | 1290
O=C(CN1CCCC1)Nc1ccc2c(c1)C(=O)c1cccc3ccnc-2c13 | 3.49 | 6.18 | 560
